Laboratory results from PubChem BioAssay AID328 (DTP/NCI, 2004).
“And” between values parts separate entries of the source, which are not always exact repeats. Equal values may be shown once. Inconclusive results and toxic doses are left out. Residues, ends and D or L forms follow the SMILES beside them.

Test system: BDF1 mice, P388 leukemia ip, median survival T/C
Test: NCI In Vivo Anticancer Drug Screen. Data for tumor model P388 Leukemia (intraperitoneal) in B6D2F1 (BDF1) mice
Details: endpoint: median survival time, higher = longer survival
In short: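 In tumour-bearing mice, survival after compound treatment is set against the vehicle group and given as a quotient.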

[1] = dose: 100.0 mg/kg/injection, schedule: Q01DX009 (ip), vehicle: saline with Tween-80
[2] = dose: 200.0 mg/kg/injection, schedule: Q01DX009 (ip), vehicle: saline with Tween-80
[3] = dose: 400.0 mg/kg/injection, schedule: Q01DX009 (ip), vehicle: saline with Tween-80
[4] = dose: 25.0 mg/kg/injection, schedule: Q01DX009 (ip), vehicle: saline
[5] = dose: 50.0 mg/kg/injection, schedule: Q01DX009 (ip), vehicle: saline
[6] = dose: 20.0 mg/kg/injection, schedule: Q01DX009 (ip), vehicle: saline with Tween-80
[7] = dose: 100.0 mg/kg/injection, schedule: Q01DX009 (ip), vehicle: Klucel (hydroxypropylcellulose) (HPC)
[8] = dose: 100.0 mg/kg/injection, schedule: Q01DX001 (ip), vehicle: saline with Tween-80
[9] = dose: 100.0 mg/kg/injection, schedule: Q01DX009 (ip), vehicle: saline
[10] = dose: 12.5 mg/kg/injection, schedule: Q01DX009 (ip), vehicle: Klucel (hydroxypropylcellulose) (HPC)
[11] = dose: 100.0 mg/kg/injection, schedule: Q01DX001 (ip), vehicle: saline
[12] = dose: 200.0 mg/kg/injection, schedule: Q01DX001 (ip), vehicle: saline
[13] = dose: 400.0 mg/kg/injection, schedule: Q01DX001 (ip), vehicle: saline
[14] = dose: 50.0 mg/kg/injection, schedule: Q01DX009 (ip), vehicle: saline with Tween-80
[15] = dose: 200.0 mg/kg/injection, schedule: Q04DX003 (ip), vehicle: saline

For `COc1ccc(-c2cnc(C(N)=O)c(=O)[nH]2)cc1`, the T/C [1] was 104 % of control, the T/C [2] was 108 % of control and the T/C [3] was 100 % of control.
For `COC1/C=C/OC2(C)Oc3c(C)c(O)c4c(O)c(c(/C=N/N5CCN(Cc6ccccc6)CC5)c(O)c4c3C2=O)NC(=O)C(C)=C/C=C/C(C)C(O)C(C)C(O)C(C)C(OC(C)=O)C1C` (centres undefined), the T/C [4] was 119 % of control and the T/C [5] was 100 % of control.
For `CN1c2ccccc2C(=O)N2CCc3c([nH]c4ccccc34)C21` (centres undefined), the T/C (dose: 10.0 mg/kg/injection, schedule: Q01DX009 (ip), vehicle: saline with Tween-80) was 98 % of control and the T/C [6] was 118 % of control.
For `O=C1NC(c2ccccc2)(c2ccccc2)C(=O)N1CCS`, the T/C (dose: 6.25 mg/kg/injection, schedule: Q01DX009 (ip), vehicle: saline) was 89 % of control and 122 % of control, the T/C (dose: 12.5 mg/kg/injection, schedule: Q01DX009 (ip), vehicle: saline) was 104 % of control and 107 % of control and the T/C [4] was 106 % of control and 116 % of control. For the same compound, the T/C (dose: 25.0 mg/kg/injection, schedule: Q04DX003 (ip), vehicle: saline) was 98 % of control and the T/C [5] was 95 % of control and 105 % of control.
`O=C(/C=C/c1cccc(Cl)c1)c1ccccc1` was tested, and the T/C [7] was 115 % of control.
For `NC(=O)NN=C(CS)CS`, the T/C (dose: 6.25 mg/kg/injection, schedule: Q01DX009 (ip), vehicle: gum acacia) was 101 % of control, the T/C (dose: 12.5 mg/kg/injection, schedule: Q01DX009 (ip), vehicle: gum acacia) was 100 % of control and the T/C (dose: 25.0 mg/kg/injection, schedule: Q01DX009 (ip), vehicle: gum acacia) was 102 % of control. For the same compound, the T/C (dose: 50.0 mg/kg/injection, schedule: Q01DX009 (ip), vehicle: gum acacia) was 100 % of control.
For `C(=N/Nc1ccccn1)/c1cccnc1`, the T/C (dose: 25.0 mg/kg/injection, schedule: Q01DX001 (ip), vehicle: saline with Tween-80) was 100 % of control, the T/C (dose: 50.0 mg/kg/injection, schedule: Q01DX001 (ip), vehicle: saline with Tween-80) was 98 % of control and the T/C [8] was 100 % of control.
`O/N=C/c1ccccc1O.O/N=C/c1ccccc1O.[Cu]` was tested, and the T/C (dose: 6.25 mg/kg/injection, schedule: Q04DX003 (ip), vehicle: saline with Tween-80) was 118 % of control, the T/C (dose: 12.5 mg/kg/injection, schedule: Q04DX003 (ip), vehicle: saline with Tween-80) was 109 % of control and the T/C (dose: 16.5 mg/kg/injection, schedule: Q04DX003 (ip), vehicle: saline with Tween-80) was 114 % of control. For the same compound, the T/C (dose: 25.0 mg/kg/injection, schedule: Q04DX003 (ip), vehicle: saline with Tween-80) was 123 % of control.
For `CN(C)CCCN1CCC2(CC[C@H]3CCCC[C@@H]3C2)CC1`, the T/C (dose: 18.75 mg/kg/injection, schedule: Q04DX003 (ip), vehicle: saline) was 100 % of control, the T/C (dose: 37.5 mg/kg/injection, schedule: Q04DX003 (ip), vehicle: saline) was 109 % of control and the T/C (dose: 75.0 mg/kg/injection, schedule: Q04DX003 (ip), vehicle: saline) was 113 % of control.
In the case of `Nc1nc(N)c(N=O)c(N)n1`, the T/C [9] is reported as 150 % of control, the T/C (dose: 200.0 mg/kg/injection, schedule: Q01DX009 (ip), vehicle: saline) is reported as 111 % of control and the T/C (dose: 400.0 mg/kg/injection, schedule: Q01DX009 (ip), vehicle: saline) is reported as 106 % of control.
With `CCCCOc1ccc(OCCCCCCCCCC[N+](C)(C)C)cc1` the T/C (dose: 3.13 mg/kg/injection, schedule: Q01DX009 (ip), vehicle: Klucel (hydroxypropylcellulose) (HPC)) was 112 % of control, the T/C (dose: 6.25 mg/kg/injection, schedule: Q01DX009 (ip), vehicle: Klucel (hydroxypropylcellulose) (HPC)) was 106 % of control and the T/C [10] was 105 % of control.
`O=C1c2ccccc2C(=O)c2cc(S(=O)(=O)Cl)ccc21` was tested, and the T/C [11] was 109 % of control, the T/C [12] was 109 % of control and the T/C [13] was 90 % of control.
For `COc1cc2c(cc1C(C)C)CCC1C(C)(C#N)CCCC21C` (centres undefined), the T/C [1] was 110 % of control, the T/C [2] was 110 % of control and the T/C [3] was 95 % of control.
With `C1CCNCC1.O=C([CH-]C(=O)C(F)(F)F)c1cccs1.O=C([CH-]C(=O)C(F)(F)F)c1cccs1.O=C([CH-]C(=O)C(F)(F)F)c1cccs1.O=C([CH-]C(=O)C(F)(F)F)c1cccs1.[Eu+3]` the T/C [9] was 122 % of control.
With `CC(=O)NC(C)C(=O)NC(C)C(=O)NC(C)C(=O)NC(C)C(=O)O` (centres undefined) (Ac-AAAA-OH; configuration not given here) the T/C (dose: 50.0 mg/kg/injection, schedule: Q01DX005 (ip), vehicle: saline with Tween-80) was 98 % of control and the T/C (dose: 100.0 mg/kg/injection, schedule: Q01DX005 (ip), vehicle: saline with Tween-80) was 95 % of control.
`CCCC(C(=O)OCCN(CC)CC)(c1ccccc1)c1ccccc1` was tested, and the T/C (dose: 54.0 mg/kg/injection, schedule: Q01DX001 (ip), vehicle: saline) was 105 % of control, the T/C (dose: 90.0 mg/kg/injection, schedule: Q01DX001 (ip), vehicle: saline) was 104 % of control and the T/C (dose: 150.0 mg/kg/injection, schedule: Q01DX001 (ip), vehicle: saline) was 105 % of control.
`CN=C1N[N+]2=C(C)CCCC2(C)S1` (centres undefined) was tested, and the T/C [4] was 100 % of control, the T/C [5] was 103 % of control and the T/C [9] was 99 % of control.
`Cc1cc(Br)c2ccccc2c1N(CC(=O)O)S(=O)(=O)c1ccccc1` was tested, and the T/C [8] was 100 % of control, the T/C (dose: 200.0 mg/kg/injection, schedule: Q01DX001 (ip), vehicle: saline with Tween-80) was 109 % of control and the T/C (dose: 400.0 mg/kg/injection, schedule: Q01DX001 (ip), vehicle: saline with Tween-80) was 109 % of control.
`CSCCCNC(=O)c1csc(-c2csc(CCNC(=O)C(F)(F)F)n2)n1` was tested, and the T/C [14] was 103 % of control, the T/C [1] was 114 % of control and the T/C [2] was 87 % of control.
For `O=C(O)/C=C/c1ccccc1C(=O)O`, the T/C [11] was 100 % of control, the T/C [12] was 100 % of control and the T/C [13] was 109 % of control.
`CC(=O)C1(O)Cc2c(O)c3c(c(O)c2C(OC2CC(N)C(O)C(C)O2)C1)C(=O)c1ccccc1C3=O` (centres undefined) was tested, and the T/C (dose: 324.0 micrograms/kg/injection, schedule: Q04DX003 (ip), vehicle: water) was 177 % of control, the T/C (dose: 540.0 micrograms/kg/injection, schedule: Q04DX003 (ip), vehicle: water) was 220 % of control and the T/C (dose: 900.0 micrograms/kg/injection, schedule: Q04DX003 (ip), vehicle: water) was 116 % of control. For the same compound, the T/C (dose: 1500.0 micrograms/kg/injection, schedule: Q04DX003 (ip), vehicle: water) was 90 % of control.
In the case of `CS(=O)(=O)OCCCOS(C)(=O)=O`, the T/C [10] is reported as 109 % of control, the T/C (dose: 25.0 mg/kg/injection, schedule: Q01DX009 (ip), vehicle: Klucel (hydroxypropylcellulose) (HPC)) is reported as 109 % of control and the T/C (dose: 50.0 mg/kg/injection, schedule: Q01DX009 (ip), vehicle: Klucel (hydroxypropylcellulose) (HPC)) is reported as 119 % of control. The T/C [7] was 95 % of control, the T/C (dose: 100.0 mg/kg/injection, schedule: Q04DX003 (ip), vehicle: saline) was 109 % of control and the T/C [15] was 118 % of control.
`CCOC(=O)CC1=NN(C(=O)c2ccccc2)C(=NC(=O)c2ccccc2)SC1` was tested, and the T/C [14] was 99 % of control, the T/C [1] was 101 % of control and the T/C [2] was 90 % of control.
`O=CC(/C=N\Nc1ccccc1)=N/Nc1ccccc1` was tested, and the T/C [6] was 100 % of control and the T/C (dose: 80.0 mg/kg/injection, schedule: Q01DX009 (ip), vehicle: saline with Tween-80) was 89 % of control.
For `CC[C@]1(O)C[C@H](OC2CC(N(C)C)C(OC3CC(O)C(O)C(C)O3)C(C)O2)c2c(cc3c(c2O)C(=O)c2c(O)ccc(O)c2C3=O)[C@H]1C(=O)OC` (some centres undefined), the T/C (dose: 0.4 mg/kg/injection, schedule: Q01DX009 (ip), vehicle: Klucel (hydroxypropylcellulose) (HPC)) was 171 % of control, the T/C (dose: 0.8 mg/kg/injection, schedule: Q01DX009 (ip), vehicle: Klucel (hydroxypropylcellulose) (HPC)) was 158 % of control and 165 % of control and the T/C (dose: 1.6 mg/kg/injection, schedule: Q01DX009 (ip), vehicle: Klucel (hydroxypropylcellulose) (HPC)) was 201 % of control and 222 % of control. For the same compound, the T/C (dose: 3.46 mg/kg/injection, schedule: Q04DX003 (ip), vehicle: other) was 185 % of control, the T/C (dose: 5.76 mg/kg/injection, schedule: Q04DX003 (ip), vehicle: other) was 217 % of control and the T/C (dose: 9.6 mg/kg/injection, schedule: Q04DX003 (ip), vehicle: other) was 105 % of control.
`CCCCN(C)N=Nc1ccc(CCCC(=O)OCC)cc1` was tested, and the T/C (dose: 12.5 mg/kg/injection, schedule: Q01DX009 (ip), vehicle: saline with Tween-80) was 91 % of control, the T/C (dose: 25.0 mg/kg/injection, schedule: Q01DX009 (ip), vehicle: saline with Tween-80) was 100 % of control and the T/C [14] was 117 % of control. For the same compound, the T/C (dose: 132.0 mg/kg/injection, schedule: Q04DX003 (ip), vehicle: saline) was 95 % of control, the T/C [15] was 156 % of control and the T/C (dose: 300.0 mg/kg/injection, schedule: Q04DX003 (ip), vehicle: saline) was 121 % of control.
